The record followed here is patent publication US20250195521A1 (Revolution Medicines, Inc., priority 2020, published 2025).

pEC50: −log10 of the molar value. Like-named read-outs stand apart in the source and are kept apart here. Where only a bound is given, the exact number is not on record here.

Usually pEC50 stands for the EC50 on a negative log10 scale, so that one unit is a factor of ten.

The test system of the test is K-Ras G12C (NCI-H358 cells). As to the kind of experiment: Potency assay: pERK in NCI-H358 cells. The settings on record: read-out: pERK EC50 (H358 KRAS G12C). It is filed as cell-based, human. On the procedure: The purpose of this assay is to measure the ability of test compounds to inhibit K-Ras in cells. […] This procedure measures a decrease in cellular pERK in response to test compounds. The procedure described below in NCI-H358 cells is applicable to K-Ras G12C.
Note: This protocol may be executed substituting other cell lines to characterize inhibitors of other RAS variants, including, for example, AsPC-1 (K-Ras G12D), Capan-1 (K-Ras G12V), or NCI-H1355 (K-Ras G13C).
NCI-H358 cells were grown and maintained using media and procedures recommended by the ATCC. On the day prior to compound addition, cells were plated in 384-well cell culture plates (40 μl/well) and grown overnight in a 37° C., 5% CO2 incubator. Test compounds were prepared in 10, 3-fold dilutions in DMSO, with a high concentration of 10 mM. On the day of assay, 40 nL of test compound was added to each well of cell culture plate using an Echo550 liquid handler (LabCyte®). Concentrations of test compound were tested in duplicate. After compound addition, cells were incubated 4 hours at 37° C., 5% CO2. Following incubation, culture medium was removed and cells were washed once with phosphate buffered saline.
In some experiments, cellular pERK level was determined using the AlphaLISA SureFire Ultra p-ERK1/2 Assay Kit (PerkinElmer). Cells were lysed in 25 μL lysis buffer, with shaking at 600 RPM at room temperature. […] After a 2-hour incubation in the dark, 5 μL donor mix was added, plate was sealed, and incubated 2 hours at room temperature. Signal was read on an Envision plate reader (PerkinElmer) using standard AlphaLISA settings. Analysis of raw data was carried out in Excel (Microsoft) and Prism (GraphPad). Signal was plotted vs. the decadal logarithm of compound concentration, and IC50 was determined by fitting a 4-parameter sigmoidal concentration response model.
In other experiments, cellular pERK was determined by In-Cell Western. […] Fixed cells were washed 4 times for 5 minutes with TBS containing 0.1% Triton X-100 (TBST) and then blocked with 100 μL Odyssey blocking buffer (LI-COR) for 60 minutes at room temperature. Primary antibody (PERK, CST-4370, Cell Signaling Technology) was diluted 1:200 in blocking buffer, and 50 μL was added to each well and incubated overnight at 4° C. Cells were washed 4 times for 5 minutes with TBST. Secondary antibody (IR-800CW rabbit, LI-COR, diluted 1:800) and DNA stain DRAQ5 (LI-COR, diluted 1:2000) were added and incubated 1-2 hours at room temperature. Cells were washed 4 times for 5 minutes with TBST. Plates were scanned on a Li—COR Odyssey CLx Imager. Analysis of raw data was carried out in Excel (Microsoft) and Prism (GraphPad). Signal was plotted vs. the decadal logarithm of compound concentration, and IC50 was determined by fitting a 4-parameter sigmoidal concentration response model.

Setting [1] is: Homo sapiens, NCI-H358 cells, 4 hours.

`CCn1c(-c2cccnc2[C@H](C)OC)c2c3cc(ccc31)-c1cc(O)cc(c1)C[C@H](NC(=O)[C@H](C(C)C)N(C)C(=O)[C@H]1CCC[C@H]1N)C(=O)N1CCC[C@H](N1)C(=O)OCC(C)(C)C2` (atropisomer, axis not shown) [Compound A131]: the negative-log EC50 (pEC50) under setting [1] was above 5.30. Turning to `CCn1c(-c2cccnc2[C@H](C)OC)c2c3cc(ccc31)-c1csc(n1)C[C@H](NC(=O)[C@H](C(C)C)N(C)C(=O)N1CC(C(C)(C)OC)C1)C(=O)N1CCC[C@H](N1)C(=O)OCC(C)(C)C2` (atropisomer, axis not shown) [Compound A614], under setting [1], the negative logarithm of the EC50 (pEC50) was above 5.30. For `C=CC(=O)N1CC[C@H](C(=O)N(C)[C@H](C(=O)N[C@H]2Cc3cc(cc(O)c3F)-c3ccc4c(c3)c(c(-c3c(CCOC)cccc3OC)n4CC)CC(C)(C)COC(=O)[C@@H]3CCCN(N3)C2=O)C(C)C)C1` [Compound A9], the negative-log EC50 (pEC50) (Homo sapiens, NCI-H358, 4 h) was above 5.30. In the case of `CCn1c(-c2cnccc2COC)c2c3cc(ccc31)-c1cc(O)cc(c1)C[C@H](NC(=O)[C@H](C(C)C)N(C)C(=O)[C@H]1CCNC1)C(=O)N1CCC[C@H](N1)C(=O)OCC(C)(C)C2` [Compound A10], the pEC50 under setting [1] was above 5.30. As to `CCn1c(-c2cnccc2COC)c2c3cc(ccc31)-c1cc(O)cc(c1)C[C@H](NC(=O)[C@H](C(C)C)N(C)C(=O)[C@H]1CCN(C(=O)OC)C1)C(=O)N1CCC[C@H](N1)C(=O)OCC(C)(C)C2` [Compound A11, methyl (3S)-3-{[(1S)-1-{[(8S,14S)-22-ethyl-4-hydroxy-21-[4-(methoxymethyl)pyridin-3-yl]-18,18-dimethyl-9,15-dioxo-16-oxa-10,22,28-triazapentacyclo [18.5.2.1^2,6.1^10,14.0^23,27]nonacosa-1 (26),2,4,6 (29),20,23 (27),24-heptaen-8-yl]carbamoyl}-2-methylpropyl](methyl)carbamoyl}pyrrolidine-1-carboxylate], the negative logarithm of the EC50 (pEC50) (Homo sapiens, NCI-H358, 4 h) was above 5.30. Regarding `C=CC(=O)N1CC[C@H](C(=O)N(C)[C@H](C(=O)N[C@H]2Cc3cc(O)cc(c3)-c3ccc4c(c3)c(c(-c3ccccc3CCOC)n4C(C)(C)C#N)CC(C)(C)COC(=O)[C@@H]3CCCN(N3)C2=O)C(C)C)C1` [Compound A12], under setting [1], the pEC50 was above 5.30. As for `CCn1c(-c2cnccc2COC)c2c3cc(ccc31)-c1cc(O)cc(c1)C[C@H](NC(=O)[C@H](C(C)C)N(C)C(=O)[C@H]1CCN(C)C1)C(=O)N1CCC[C@H](N1)C(=O)OCC(C)(C)C2` [Compound A27, (2S)—N-[(8S,14S)-22-ethyl-4-hydroxy-21-[4-(methoxymethyl)pyridin-3-yl]-18,18-dimethyl-9,15-dioxo-16-oxa-10,22,28-triazapentacyclo [18.5.2.1^2,6.1^10,14.0^23,27]nonacosa-1 (26),2,4,6 (29),20,23 (27),24-heptaen-8-yl]-3-methyl-2-{N-methyl-1-[(3S)-1-methylpyrrolidin-3-yl]formamido}butanamide], under setting [1], the negative-log EC50 (pEC50) was above 5.30.

Take `C=CC(=O)N1CC[C@H](C(=O)N(C)[C@H](C(=O)N[C@H]2Cc3cc(O)cc(c3)-c3ccc4c(c3)c(c(-c3ncccc3[C@@H](C)OC)n4CC)CC(C)(C)COC(=O)[C@@H]3CCCN(N3)C2=O)C(C)C)C1` [Compound A29]: for the setting “Homo sapiens, NCI-H358, 4 h”, the pEC50 was above 5.30. Consider `CCn1c(-c2cccnc2COC)c2c3cc(ccc31)-c1cc(O)cc(c1)C[C@H](NC(=O)[C@H](C(C)C)N(C)C(=O)[C@H]1CCNC1)C(=O)N1CCC[C@H](N1)C(=O)OCC(C)(C)C2` [Compound A32], for which the negative logarithm of the EC50 (pEC50) under setting [1] was above 5.30. As to `CCn1c(-c2cnccc2COC)c2c3cc(ccc31)-c1cc(O)cc(c1)C[C@H](NC(=O)[C@H](C(C)C)N(C)C(=O)[C@H]1CCN(S(=O)(=O)N3CC(N)C3)C1)C(=O)N1CCC[C@H](N1)C(=O)OCC(C)(C)C2` [Compound A35], the negative logarithm of the EC50 (pEC50) under setting [1] is above 5.30. Regarding `CCn1c(-c2cnccc2COC)c2c3cc(ccc31)-c1cc(O)cc(c1)C[C@H](NC(=O)[C@H](C(C)C)N(C)C(=O)[C@H]1CCN(S(=O)(=O)N3CC(O)C3)C1)C(=O)N1CCC[C@H](N1)C(=O)OCC(C)(C)C2` [Compound A37, (2S)—N-[(8S,14S)-22-ethyl-4-hydroxy-21-[4-(methoxymethyl)pyridin-3-yl]-18,18-dimethyl-9,15-dioxo-16-oxa-10,22,28-triazapentacyclo [18.5.2.1^2,6.1^10,14.0^23,27]nonacosa-1 (26),2,4,6 (29),20,23 (27),24-heptaen-8-yl]-2-{1-[(3S)-1-[(3-hydroxyazetidin-1-yl)sulfonyl]pyrrolidin-3-yl]-N-methylformamido}-3-methylbutanamide], the negative-log EC50 (pEC50) under setting [1] was above 5.30. Take `C=CC(=O)N1CC[C@H](C(=O)N(C)[C@H](C(=O)N[C@H]2Cc3cc(N)cc(c3)-c3ccc4c(c3)c(c(-c3ccccc3COC)n4CC)CC(C)(C)COC(=O)[C@@H]3CCCN(N3)C2=O)C(C)C)C1` [Compound A42]: where the note is “NCI-H358 cells, 4 hours”, the pEC50 was above 5.30. Take `CCn1c(-c2cnccc2COC)c2c3cc(ccc31)-c1cc(O)cc(c1)C[C@H](NC(=O)[C@H](C(C)C)N(C)C(=O)CO)C(=O)N1CCC[C@H](N1)C(=O)OCC(C)(C)C2` [Compound A43, (2S)—N-[(8S,14S)-22-ethyl-4-hydroxy-21-[4-(methoxymethyl)pyridin-3-yl]-18,18-dimethyl-9,15-dioxo-16-oxa-10,22,28-triazapentacyclo [18.5.2.1^2,6.1^10,14.0^23,27]nonacosa-1 (26), 2,4,6 (29),20,23 (27),24-heptaen-8-yl]-2-(2-hydroxy-N-methylacetamido)-3-methylbutanamide]: the negative-log EC50 (pEC50) under setting [1] is above 5.30. Same read-out and setting: next, `CCn1c(-c2cnccc2COC)c2c3cc(ccc31)-c1cc(O)cc(c1)C[C@H](NC(=O)[C@H](C(C)C)N1CCCCC1=O)C(=O)N1CCC[C@H](N1)C(=O)OCC(C)(C)C2` [Compound A44]: above 5.30. Still for that read-out and setting: with `CCn1c(-c2cnccc2COC)c2c3cc(ccc31)-c1cc(O)cc(c1)C[C@H](NC(=O)[C@H](C(C)C)N(C)S(C)(=O)=O)C(=O)N1CCC[C@H](N1)C(=O)OCC(C)(C)C2` [Compound A57, (2S)—N-[(8S,14S)-22-ethyl-4-hydroxy-21-[4-(methoxymethyl)pyridin-3-yl]-18,18-dimethyl-9,15-dioxo-16-oxa-10,22,28-triazapentacyclo [18.5.2.1^2,6.1^10,14.0^23,27]nonacosa-1 (26),2,4,6 (29),20,23 (27),24-heptaen-8-yl]-3-methyl-2-(N-methylmethanesulfonamido) butanamide] the figure was above 5.30; with `CCn1c(-c2cccnc2[C@H](C)OC)c2c3cc(ccc31)-c1cccc(c1)C[C@H](NC(=O)[C@H](C(C)C)N(C)C(=O)[C@H]1CCN(C(C)=O)C1)C(=O)N1CCC[C@H](N1)C(=O)OCC(C)(C)C2` [Compound A60], above 5.30; with `CCn1c(-c2cnccc2COC)c2c3cc(ccc31)-c1cc(O)cc(c1)C[C@H](NC(=O)[C@H]([C@@H](C)OC)N(C)C(C)=O)C(=O)N1CCC[C@H](N1)C(=O)OCC(C)(C)C2` [Compound A76], above 5.30. Consider `C=CC(=O)N1CC[C@H](C(=O)N(C)[C@H](C(=O)N[C@H]2Cc3cc(OC(=O)N(C)CC(=O)O)cc(c3)-c3ccc4c(c3)c(c(-c3ccccc3CCOC)n4CC)CC(C)(C)COC(=O)[C@@H]3CCCN(N3)C2=O)C(C)C)C1` [Compound A78], for which the negative logarithm of the EC50 (pEC50) (Homo sapiens, NCI-H358, 4 h) was above 5.30.

`CCn1c(-c2cnccc2COC)c2c3cc(ccc31)-c1cc(O)cc(c1)C[C@H](NC(=O)[C@H](C(C)C)N(C)C(=O)[C@@H]1CCOC1)C(=O)N1CCC[C@H](N1)C(=O)OCC(C)(C)C2` [Compound A94]: the negative logarithm of the EC50 (pEC50) under setting [1] was above 5.30.
